# Experiments:
# [1] = test system: PSMA-expressing LNCAP cancer xenografts; test: Biodistribution of ^68Ga-labeled PSMA-targeting tracers; type: in vivo, mice; settings: 1 h post-injection
# Method: (§1) Imaging and biodistribution experiments were performed using NODSCID 1L2RγKO male mice. Mice were anesthetized by inhalation with 2% isoflurane in oxygen, and implanted subcutaneously with 1×10^7 LNCaP cells behind left shoulder. Mice were imaged or used in biodistribution studies when the tumor grew up to reach 5-8 mm in diameter during 5-6 weeks.
# (§2) PET imaging experiments were conducted using Siemens Inveon micro PET/CT scanner. Each tumor bearing mouse was injected 6-8 MBq of Ga-68 labeled tracer through the tail vein under anesthesia (2% isoflurane in oxygen). The mice were allowed to recover and roam freely in their cage. After 50 min, the mice were sedated again with 2% isoflurane in oxygen inhalation and positioned in the scanner. A 10-min CT scan was conducted first for localization and attenuation correction after segmentation for reconstructing the PET images. Then, a 10-min static PET imaging was performed to determined uptake in tumor and other organs. The mice were kept warm by a heating pad during acquisition. For imaging studies acquired at 3 h post-injection (p.i.), the mice were placed in the micro PET/CT scanner at 170 min p.i. Then, the CT acquisitions were conducted as described above, a 15-min static PET imaging was performed to determined uptake in tumor and other organs.
# For biodistribution studies, the mice were injected with the radiotracer as described above. At predetermined time points (1 or 3 h for ^68Ga studies; 1, 4, 24, 72, or 120 h for ^177Lu studies), the mice was anesthetized with 2% isoflurane inhalation, and euthanized by CO2 inhalation. Blood was withdrawn immediately from the heart, and the organs/tissues of interest were collected. The collected organs/tissues were weighed and counted using a Perkin Elmer (Waltham, MA) Wizard2 2480 gamma counter. The uptake in each organ/tissue was normalized to the injected dose using a standard curve, and expressed as the percentage of the injected dose per gram of tissue (% ID/g).
# LNCaP tumors = test: PET/CT imaging of ^68Ga-labeled tracers; type: in vivo, mice; settings: FIG. 3
# Method: as §1, §2
Compound,Tissue (% ID/g): Adrenal glands [1] [% ID/g],Tissue (% ID/g): Blood [1] [% ID/g],Tissue (% ID/g): Bone [1] [% ID/g],Tissue (% ID/g): Brain [1] [% ID/g],Tissue (% ID/g): Fat [1] [% ID/g],Tissue (% ID/g): Heart [1] [% ID/g],Tissue (% ID/g): Intestine [1] [% ID/g],Tissue (% ID/g): Kidneys [1] [% ID/g],Tissue (% ID/g): Lacrimal [1] [% ID/g],Tissue (% ID/g): Liver [1] [% ID/g],Tissue (% ID/g): Lungs [1] [% ID/g],Tissue (% ID/g): Muscle [1] [% ID/g],Tissue (% ID/g): Pancreas [1] [% ID/g],Tissue (% ID/g): Salivary [1] [% ID/g],Tissue (% ID/g): Seminal [1] [% ID/g],Tissue (% ID/g): Spleen [1] [% ID/g],Tissue (% ID/g): Stomach [1] [% ID/g],Tissue (% ID/g): Tail [1] [% ID/g],Tissue (% ID/g): Testes [1] [% ID/g],Tissue (% ID/g): Thyroid [1] [% ID/g],also measured
O=C([O-])CN1CCN(CC(=O)[O-])CCN(CC(=O)NC[C@H]2CC[C@H](C(=O)N[C@@H](Cc3ccc4ccc5cccc6ccc3c4c56)C(=O)NCCCC[C@H](NC(=O)N[C@@H](CCC(=O)O)C(=O)O)C(=O)O)CC2)CCN(CC(=O)[O-])CC1.[68Ga+3] [^68Ga-HTK03029],4.91 ± 1.57,3.93 ± 0.91,0.92 ± 0.14,0.09 ± 0.02,1.57 ± 0.42,1.25 ± 0.27,0.77 ± 0.11,198 ± 49.3,1.06 ± 0.49,1.32 ± 0.63,3.59 ± 0.69,0.63 ± 0.10,0.94 ± 0.18,3.27 ± 1.02,6.74 ± 10.7,7.08 ± 5.08,0.31 ± 0.08,2.18 ± 0.65,1.02 ± 0.13,1.57 ± 0.32,"Tissue (% ID/g): Tumor [1]: 13.9 ± 6.58 % ID/g; Tissue (% ID/g): Urine [1]: 175 ± 178 % ID/g; tumor-to-background contrast ratio Tumor: Blood [1]: 3.39 ± 1.01; tumor-to-background contrast ratio Tumor: Muscle [1]: 21.3 ± 7.50; tumor-to-background contrast ratio Tumor: kidney [1]: 0.07 ± 0.02; Tissue (% ID/g): Tumor ([1]; listed as 68Ga-labeled HTK03029): ~13 % ID/g; uptake in PET/CT images (LNCaP tumors): higher uptake was observed in LNCap tumor xenografts, kidneys and urinary bladders"
CCCCCC[C@H](NC(=O)[C@H]1CC[C@H](CNC(=O)CN2CCN(CC(=O)[O-])CCN(CC(=O)[O-])CCN(CC(=O)[O-])CC2)CC1)C(=O)NCCCC[C@H](NC(=O)N[C@@H](CCC(=O)O)C(=O)O)C(=O)O.[68Ga+3] [^68Ga-HTK03026],1.84 ± 0.95,0.70 ± 0.19,0.54 ± 0.20,0.06 ± 0.02,0.45 ± 0.11,0.30 ± 0.06,0.29 ± 0.06,68.5 ± 28.2,1.33 ± 0.90,0.24 ± 0.06,0.82 ± 0.26,0.28 ± 0.13,0.71 ± 1.04,0.83 ± 0.22,0.43 ± 0.31,1.34 ± 0.54,0.10 ± 0.03,0.90 ± 0.56,0.35 ± 0.22,0.35 ± 0.08,"Tissue (% ID/g): Tumor [1]: 12.5 ± 2.90 % ID/g; Tissue (% ID/g): Urine [1]: 575 ± 245 % ID/g; tumor-to-background contrast ratio Tumor: Blood [1]: 18.6 ± 5.54; tumor-to-background contrast ratio Tumor: Muscle [1]: 52.8 ± 24.9; tumor-to-background contrast ratio Tumor: kidney [1]: 0.22 ± 0.15; Tissue (% ID/g): Tumor ([1]; listed as 68Ga-labeled HTK03026): ~13 % ID/g; uptake in PET/CT images (LNCaP tumors): higher uptake was observed in LNCap tumor xenografts, kidneys and urinary bladders"
O=C([O-])CN1CCN(CC(=O)[O-])CCN(CC(=O)NC[C@H]2CC[C@H](C(=O)N[C@@H](Cc3ccc4cc5ccccc5cc4c3)C(=O)NCCCC[C@H](NC(=O)N[C@@H](CCC(=O)O)C(=O)O)C(=O)O)CC2)CCN(CC(=O)[O-])CC1.[68Ga+3] [^68Ga-HTK03027],3.55 ± 2.33,1.56 ± 0.57,0.70 ± 0.33,0.06 ± 0.03,1.03 ± 0.67,0.56 ± 0.24,0.44 ± 0.12,85.6 ± 73.5,1.00 ± 0.56,0.46 ± 0.10,1.66 ± 0.67,0.48 ± 0.37,0.57 ± 0.20,1.86 ± 0.91,10.6 ± 10.9,3.36 ± 2.54,0.17 ± 0.10,0.98 ± 0.38,0.56 ± 0.18,0.76 ± 0.33,"Tissue (% ID/g): Tumor [1]: 13.3 ± 5.44 % ID/g; Tissue (% ID/g): Urine [1]: 844 ± 645 % ID/g; tumor-to-background contrast ratio Tumor: Blood [1]: 8.57 ± 2.83; tumor-to-background contrast ratio Tumor: Muscle [1]: 35.0 ± 18.7; tumor-to-background contrast ratio Tumor: kidney [1]: 0.27 ± 0.20; Tissue (% ID/g): Tumor ([1]; listed as 68Ga-labeled HTK03027): ~13 % ID/g; uptake in PET/CT images (LNCaP tumors): higher uptake was observed in LNCap tumor xenografts, kidneys and urinary bladders"

# — US12472272B2, “Radiolabelled compounds for diagnosis or treatment of prostate-specific membrane antigen- expressing cancer” (PROVINCIAL HEALTH SERVICES AUTHORITY, priority 2019, dated 2025)
